Experiments:
[1] = Auditory brainstem response test (ABR-TEST), hearing threshold; format: in vivo, C57BL/6 mice; settings: for hearing threshold: hypoxia
[2] = mouse
SOD = test: Superoxide dismutase (SOD) activity test in serum; format: in vivo, C57BL/6 mice; parameters: unit not given here
Description: Specifically, the blood was reacted in an anticoagulant tube at 25° C. (room temperature) for 30 minutes, and then centrifuged at 2,000 × g for 15 minutes at 4° C. to prepare purified serum. The purified serum was stored at -80° C. for one month and diluted 1:5 with sample buffer before analysis, and then the amount of SOD in the body was measured using an SOD assay kit (No. 706002, Cayman Che., MI, USA). The SOD assay kit is a kit that uses tetrazolium salt to detect superoxide radicals generated by xanthine oxidase and hypoxanthine. […] The amount of oxidative stress in serum was analyzed by analyzing the SOD activity test result in Experimental Example <1-5>.

auditory hair cells = test: Hair cell survival and damage by Myo7a immunostaining of cochlear slices; format: in vivo, C57BL/6 mice; settings: normoxia; single condition

Dermis Thickness [2]: 348.5 ±85.9
Compound: O=C[C@H](O)[C@@H](O)[C@@H](O)[C@H](O)CO [GI, D-galactose]
hearing threshold ([1]; 8, 16, 24 kHz analysis, initial value (increased from)): 30 dB | hearing threshold ([1]; 8, 16, 24 kHz analysis, value after 1 month (increased to)): 60 dB | hearing threshold ([1]; 8 kHz, final value (increased to), 3 months): 67 + 10.13 dB | hearing threshold ([1]; 8 kHz, initial value (increased from)): 34 + 3.76 dB | hearing threshold ([1]; 16 kHz, final value (increased to), 3 months): 60 + 7.33 dB | hearing threshold ([1]; 16 kHz, initial value (increased from)): 38 + 4.08 dB | change in hearing threshold compared to control group ([1]; normoxia, 8, 16, and 24 kHz): do not change significantly | change in the hearing threshold ([1]; normoxia, 8 kHz): no significant change | changes in the hearing thresholds ([1]; normoxia, frequencies of 4 to 32 kHz, 3 months): no significant changes | amount of SOD in serum (SOD; hypoxia, 0 M): 0.5914 ±0.000 | amount of SOD in serum (SOD; hypoxia, 1 M): 0.5627 ± 0.005 | amount of SOD in serum (SOD; hypoxia, 2 M): 0.5463 ± 0.005 | amount of SOD in serum (SOD; hypoxia, 3 M): 0.5695 ± 0.059 | amount of SOD in serum (SOD; normoxia, 0 M): 0.5955 ± 0.017 | amount of SOD in serum (SOD; normoxia, 1 M): 0.5463 ± 0.005 | amount of SOD in serum (SOD; normoxia, 2 M): 0.5216 ± 0.005 | amount of SOD in serum (SOD; normoxia, 3 M): 0.5148 ± 0.028 | damage to hair cells (auditory hair cells): almost no damage to cells

— patent US20230309520A1, “AGE-RELATED HEARING LOSS ANIMAL MODEL AND CONSTRUCTION METHOD THEREFOR” (UNIVERSITY INDUSTRY FOUNDATION, YONSEI UNIVERSITY WONJU …, priority 2020, published 2023)
